Test results taken from PubChem BioAssay (NCI).
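Where inhibition never reached the appropriate level, the endpoint shown equals the highest concentration tested. Otherwise, values were interpolated linearly from a five-concentration, 48-hour dose response in 96-well plates. TGI is the concentration that stops growth completely.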

Columns and labels:
Experiment in all cases: NCI tumour cell line growth inhibition, 48 h
[1] = tested on: SK-OV-3 ovarian
[2] = tested on: UACC-257 melanoma
[3] = tested on: RPMI-8226 leukemia
[4] = tested on: OVCAR-8 ovarian
[5] = tested on: K-562 leukemia
[6] = tested on: HT29 colon
[7] = tested on: SK-MEL-2 melanoma
[8] = tested on: NCI-H23 lung
[9] = tested on: SK-MEL-28 melanoma
[10] = tested on: IGROV1 ovarian
[11] = tested on: HL-60(TB) leukemia
[12] = tested on: LOX IMVI melanoma
[13] = tested on: SNB-19 CNS
[14] = tested on: U251 CNS
[15] = tested on: HOP-62 NSCLC
[16] = tested on: MALME-3M melanoma
[17] = tested on: KM12 colon
[18] = tested on: HS 578T breast
[19] = tested on: M14 melanoma
[20] = tested on: MDA-MB-435
[21] = tested on: BT-549 breast
[22] = tested on: SF-268 CNS
[23] = tested on: MDA-MB-231 breast
[24] = tested on: NCI-H226 lung
[25] = tested on: NCI-H460 lung
[26] = tested on: RXF 393 renal
[27] = tested on: UACC-62 melanoma
[28] = tested on: MDA-N
[29] = tested on: DU-145 prostate
[30] = tested on: HCT-116 colon
[31] = tested on: A549 NSCLC
[32] = tested on: SN12C renal
[33] = tested on: SF-539 CNS
[34] = tested on: SNB-75 CNS
[35] = tested on: HOP-92 NSCLC
[36] = tested on: OVCAR-3 ovarian
[37] = tested on: NCI/ADR-RES ovarian
[38] = tested on: SF-295 CNS
[39] = tested on: TK-10 renal
[40] = tested on: OVCAR-5 ovarian
[41] = tested on: UO-31 renal
[42] = tested on: PC-3 prostate
[43] = tested on: HCT-15 colon
[44] = tested on: MOLT-4 leukemia
[45] = tested on: 786-0 renal
[46] = tested on: COLO 205 colon
[47] = tested on: EKVX NSCLC
[48] = tested on: A498 renal
[49] = tested on: NCI-H522 lung
[50] = tested on: MCF7 breast
[51] = tested on: ACHN renal
[52] = tested on: CAKI-1 renal
[53] = tested on: HCC-2998 colon
[54] = tested on: OVCAR-4 ovarian
[55] = tested on: SR leukemia
[56] = tested on: CCRF-CEM leukemia
[57] = tested on: SW-620 colon
[58] = tested on: SK-MEL-5 melanoma

## CCC(=O)/C(=C\I)c1ccccc1
[1]
  TGI: 30.2 µM
[2]
  TGI: 16.7 µM
[3]
  TGI: > 100 µM
[4]
  TGI: 3.68 µM
[5]
  TGI: > 100 µM
[6]
  TGI: 2.51 µM
[7]
  TGI: 4.41 µM
[8]
  TGI: 14.4 µM
[9]
  TGI: 6.45 µM
[10]
  TGI: 4.28 µM
[11]
  TGI: 6.35 µM
[12]
  TGI: 2.96 µM
[13]
  TGI: 29 µM
[14]
  TGI: 4.83 µM
[15]
  TGI: 39.7 µM
[16]
  TGI: 3.23 µM
[17]
  TGI: 19.9 µM
[18]
  TGI: > 100 µM
[19]
  TGI: 4.72 µM
[20]
  TGI: 10.4 µM
[21]
  TGI: 3.3 µM
[22]
  TGI: 40.3 µM
[23]
  TGI: 3.29 µM
[24]
  TGI: 56.7 µM
[25]
  TGI: 25.5 µM
[26]
  TGI: 3.01 µM
[27]
  TGI: 9.77 µM
[28]
  TGI: 11.2 µM
[29]
  TGI: 18.4 µM
[30]
  TGI: 3.3 µM
[31]
  TGI: 37 µM
[32]
  TGI: 5.29 µM
[33]
  TGI: 34.3 µM
[34]
  TGI: 3.48 µM
[35]
  TGI: 4.27 µM
[36]
  TGI: 3.12 µM
[37]
  TGI: 32.2 µM
[38]
  TGI: 33.4 µM
[39]
  TGI: 28.3 µM
[40]
  TGI: 3.48 µM
[41]
  TGI: 4.2 µM
[42]
  TGI: 9.34 µM
[43]
  TGI: 3.37 µM
[44]
  TGI: 7.08 µM
[45]
  TGI: 3.33 µM
[46]
  TGI: 3.59 µM
[47]
  TGI: 33.6 µM
[48]
  TGI: 32.1 µM

## COc1cc(OC2OC(COC(=O)c3cc(O)c(O)c(O)c3)C(O)C(O)C2O)ccc1O (centres undefined)
[49]
  TGI: > 100 µM
[2]
  TGI: > 100 µM
[3]
  TGI: > 100 µM
[4]
  TGI: > 100 µM
[5]
  TGI: > 100 µM
[6]
  TGI: > 100 µM
[50]
  TGI: > 100 µM
[7]
  TGI: > 100 µM
[8]
  TGI: > 100 µM
[9]
  TGI: > 100 µM
[10]
  TGI: > 100 µM
[11]
  TGI: > 100 µM
[12]
  TGI: > 100 µM
[13]
  TGI: > 100 µM
[14]
  TGI: > 100 µM
[15]
  TGI: > 100 µM
[51]
  TGI: > 100 µM
[52]
  TGI: > 100 µM
[16]
  TGI: > 100 µM
[17]
  TGI: > 100 µM
[18]
  TGI: > 100 µM
[19]
  TGI: > 100 µM
[20]
  TGI: 63.3 µM
[21]
  TGI: > 100 µM
[53]
  TGI: > 100 µM
[22]
  TGI: > 100 µM
[54]
  TGI: > 100 µM
[23]
  TGI: > 100 µM
[24]
  TGI: > 100 µM
[55]
  TGI: > 100 µM
[25]
  TGI: > 100 µM
[26]
  TGI: > 100 µM
[56]
  TGI: > 100 µM
[28]
  TGI: > 100 µM
[29]
  TGI: > 100 µM
[30]
  TGI: > 100 µM
[31]
  TGI: > 100 µM
[32]
  TGI: > 100 µM
[33]
  TGI: > 100 µM
[34]
  TGI: > 100 µM
[35]
  TGI: > 100 µM
[36]
  TGI: > 100 µM
[57]
  TGI: > 100 µM
[37]
  TGI: > 100 µM
[38]
  TGI: > 100 µM
[39]
  TGI: > 100 µM
[40]
  TGI: > 100 µM
[41]
  TGI: > 100 µM
[42]
  TGI: 81.9 µM
[43]
  TGI: > 100 µM
[44]
  TGI: > 100 µM
[45]
  TGI: > 100 µM
[46]
  TGI: > 100 µM
[47]
  TGI: > 100 µM
[58]
  TGI: > 100 µM
[48]
  TGI: > 100 µM
